Calls of active or inactive are those of the source. The rule behind the calls is not given here.
Key:
Tyrosinase = molecular target: T1, Tyrosinase (Agaricus bisporus, UniProt O42713)
T1 sequence (O42713 whole entry): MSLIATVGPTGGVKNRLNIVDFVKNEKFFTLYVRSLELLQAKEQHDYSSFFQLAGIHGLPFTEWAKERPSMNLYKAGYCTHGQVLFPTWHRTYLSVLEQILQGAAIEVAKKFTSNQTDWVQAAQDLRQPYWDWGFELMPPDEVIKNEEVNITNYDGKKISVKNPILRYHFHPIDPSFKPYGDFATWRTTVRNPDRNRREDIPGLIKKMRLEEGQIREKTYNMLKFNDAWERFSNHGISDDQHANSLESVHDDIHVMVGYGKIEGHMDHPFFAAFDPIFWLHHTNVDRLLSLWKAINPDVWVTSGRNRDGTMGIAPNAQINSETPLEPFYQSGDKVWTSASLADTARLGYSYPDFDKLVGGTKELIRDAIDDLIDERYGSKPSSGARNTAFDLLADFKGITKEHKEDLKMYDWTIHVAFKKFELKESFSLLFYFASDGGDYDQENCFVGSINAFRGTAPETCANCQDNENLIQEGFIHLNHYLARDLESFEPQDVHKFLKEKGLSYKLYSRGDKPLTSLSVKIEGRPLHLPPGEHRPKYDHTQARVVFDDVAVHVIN
Description: Inhibition of mushroom tyrosinase using L-tyrosine as a substrate after 30 mins by spectrophotometric method

[1] = molecular target: T2, Tyrosinase (Agaricus bisporus) (UniProt O42713); experiment: Inhibition of mushroom tyrosinase at 1 mM using L-tyrosine as a substrate after 30 mins by spectrophotometric method
T2 sequence (whole entry): T1 sequence (O42713 whole entry)

In the case of `CCCCCCCCC(=O)N/C(=C\c1ccc(O)cc1)C(=O)O`, the IC50 (Tyrosinase) is reported as 280 µM.
In the case of `CC(C)CCCCCCC(=O)N/C(=C\c1ccc(O)cc1)C(N)=O`, the inhibition [1] is reported as “inactive”.
For `CCCCCCCCCC(=O)N/C(=C\c1ccc(O)cc1)C(=O)O`, the IC50 (Tyrosinase) was 130 µM.
With `CC(C)CCCCCCC(=O)N/C(=C\c1ccc(O)cc1)C(=O)O` the IC50 (Tyrosinase) was 470 µM.
In the case of `CCCCCCCCCC(=O)N/C(=C\c1ccc(O)cc1)C(N)=O`, the inhibition [1] is reported as “inactive”.
